Reference: US10160705B2, “Class of HDAC inhibitors expands the renal progenitor cells population and improves the rate of recovery from acute kidney injury” (University of Pittsburgh—Of the Commonwealth System of …, priority 2011, dated 2018)
Where two headings read alike, the source gives them in different places.

How the values were obtained:
renal progenitor cells = assay: In situ hybridization for lhx1a expression in 10-somite embryos (renal progenitor cell expansion); format: in vivo; conditions: for responders at 3 µM / responders at 1.5 µM / responders at 0.2 µM / responders at 0.4 µM / EC50: Danio rerio; for Lhx1a expansion caused by analog treatment, 800 nM: 800 nM from 2 hpf; for responders at 0.2 µM: 200 nM, read-out: Expansion of Cells (including repeats* and recounts**) 200 nM; for responders at 0.4 µM: 400 nM, read-out: Expansion of Cells (including repeats* and recounts**) 400 nM; for EC50: first pass EC50 from percent expansion (Excel trendline), average where several experiments
Protocol: PTBA was synthesized as described below. Hydroxyurea and aphidicolin were obtained from Sigma-Aldrich.
In situ hybridization and immunocytochemistry: In situ hybridization was performed as previously described with some modifications.142 Hybridization temperature was 65° C. Embryos were blocked in 2% blocking reagent (Roche) with 5% sheep serum in MAB (100 mM maleic acid and 150 mM NaCl [pH 7.5]). Whole-mount immunocytochemistry with 1:25 mouse anti-α6F antibody (Developmental Studies Hybridoma Bank) and 1:100 Cy3 secondary antibody (Jackson ImmunoResearch) was performed as described previously.108 Embryos were embedded in JB-4 for sectioning per the manufacturer's instructions (Polysciences), sectioned at 5 μm, and mounted with Cytoseal 60 (Richard-Allan Scientific).
The remaining PTBA analogs were synthesized.
In situ hybridization for lhx1a was performed as described above. […] Compounds were classified as effective, partially-effective or ineffective based on comparison to the effects of PTBA at a given concentration.
Testing of the compounds is on-going, but for those tested, Table 6 provides first pass EC50s based upon colormetric in situ hybridizations for the Lhx1a mRNA expression levels. After the procedure is run, in situ hybridization is done for the lhx1 mRNA expression and the number of embryos that show an expanded kidney field is manually counted to establish the percent of embryos showing expansion. Then the EC50 is determined by plotting the percent expansion in Excel, graphing the results and using the trendline function to determine the 50 percent point.

zebrafish embryos = assay: Phenotypic screen for edema and survival in zebrafish larvae at 72 hpf; conditions: for Dead / Edemic 1 (E1) / Edemic 2 (E2) / Edemic 3 (E3) / Wild-type (WT): number of larvae (of 36), 3 μM from 2 hpf, scored at 72 hpf; for effect on zebrafish embryos in the phenotypic screen: 3 μM
Protocol: The screen was performed in zebrafish embryos using the National Cancer Institute's Developmental Therapeutics Program (NCI/DTP) Diversity Set I. This library contains 1990 compounds selected by pharmacophore modeling to represent the more than 140,000 small molecules maintained in the NCI/DTP Open Repository. Compounds from the NCI/DTP Diversity Set I were diluted to 10 μM in E3 embryo medium (5 mM NaCl, 0.33 mM CaCl2, 0.33 mM MgSO4, and 0.17 mM KCl) in a final DMSO concentration of 0.5% and arrayed in 96-well plates. Beginning at approximately 2 hpf, embryos were transferred to each well in groups of five using a glass pipette. The plates were incubated at 28.5° C. for 70 hours. Individual wells were then scored for a dominant phenotype, representative of at least four of the five embryos. The primary objective was to identify compounds that caused edema in treated embryos at 72 hpf. Small molecules generating edema were retested once for verification, before obtaining additional compound from the NCI/DTP Open Repository.
PTBA was synthesized as described below. Hydroxyurea and aphidicolin were obtained from Sigma-Aldrich. Groups of 20 to 30 chorionated 2 hpf embryos were arrayed in individual wells of 12-well plates. E3 medium was removed with a glass pipette and replaced with 1.5 ml treatment solutions containing 0.5% DMSO in E3 with or without compound at the reported concentrations. Treatments for all studies were initiated at 2 hpf, except for the temporal studies (FIG. 6) and the HUA studies (FIG. 11). HUA studies were performed as described previously (Zhang, L., et al. Cell cycle progression is required for zebrafish somite morphogenesis but not segmentation clock function. Development 135, 2065-2070, (2008)), with the following modifications. HUA in 0.5% DMSO was added at early gastrulation (5 hpf) and PTBA was subsequently added at late gastrulation (8 hpf) to allow for penetration of the proliferation inhibitors. All embryos were incubated at 28.5° C. until the required developmental stage.
Following 70 hours of treatment (as described above), edemic phenotypes in 72 hpf larvae were scored using a phenotype-based classification system. Wild type: no visible edema or developmental delay. […] Significant effects (p<0.05) on survival were determined by two-tailed Fisher's exact test in comparison with the 0 μM PTBA treatment group.
PTBA and methyl-4-(phenylthio)butanoate were synthesized as described above. 4-(Naphthalen-2-ylthio)butanoic acid (NSC2733) and 3-(phenylthio)benzoic acid (NSC113994), were obtained from the NCI/DTP Open Repository. APHA compound 8, Apicidin, butanoic acid, PBA, 4-phenoxybutanoic acid, 5-phenylpentanoic acid, Scriptaid, TSA, and valproic acid were obtained from Sigma-Aldrich. MS-275 and SAHA were obtained from Cayman Chemical Co. 4-(phenylsulfonyl)butanoic acid was obtained from Matrix Scientific. Tubacin was a gift of Dr. Ralph Mazitschek of the Broad Institute (Cambridge, Mass.). The remaining PTBA analogs were synthesized. Three independent groups of 12 chorionated 2 hpf embryos were arrayed in individual wells of 24-well plates. E3 medium was removed with a glass pipette and replaced with 800 μl treatment solutions containing 0.5% DMSO in E3 with or without compound at the reported concentrations.
Phenotypic screening of PTBA analogs was performed identically to the concentration-response experiments detailed above. Embryos were treated with each PTBA analog from 2 to 72 hpf as described above.

[1] = 3 μM from 2 hpf, 10-somite embryos
[2] = 3 μM from 2 hpf, 10-somite embryos, read-out: lhx1a expansion, percent of treated embryos
[3] = 1.5 μM from 2 hpf, 10-somite embryos
[4] = 1.5 μM from 2 hpf, 10-somite embryos, read-out: lhx1a expansion, percent of treated embryos
[5] = percent of embryos with expanded kidney field, 1.5 μM, read-out: Expansion of Cells (including repeats* and recounts**) 1.5 μM
[6] = percent of embryos with expanded kidney field, 3 μM, read-out: Expansion of Cells (including repeats* and recounts**) 3 μM
[7] = percent of embryos with expanded kidney field

Row | SMILES | Lhx1a expansion caused by analog treatment, 3 μM (renal progenitor cells; [1]) | lhx1a expansion, percent of treated embryos (renal progenitor cells; [1]) | Dead (zebrafish embryos) | Edemic 1 (E1) (zebrafish embryos) | Edemic 2 (E2) (zebrafish embryos) | Edemic 3 (E3) (zebrafish embryos) | Wild-type (WT) (zebrafish embryos) | lhx1a expansion, percent of treated embryos (renal progenitor cells; 3 μM from 2 hpf, 10-somite embryos, listed as 4-(napthalen-2-ylthio)butanoic acid) | responders at 3 µM (renal progenitor cells; [2]) | effect on zebrafish embryos in the phenotypic screen (zebrafish embryos) | Lhx1a expansion caused by analog treatment, 1.5 μM (renal progenitor cells; [3]) | responders at 1.5 µM (renal progenitor cells; [4]) | responders at 1.5 µM (renal progenitor cells; [5]) | responders at 3 µM (renal progenitor cells; [6]) | Lhx1a expansion caused by analog treatment, 800 nM (renal progenitor cells; 10-somite embryos) | responders at 0.2 µM (renal progenitor cells; [7]) | responders at 0.4 µM (renal progenitor cells; [7]) | EC50 (renal progenitor cells)
1 | O=C(O)c1cccc(Sc2ccccc2)c1 [3-(phenylthio)benzoic acid, reference compound] | − | no expansion | 0 | 34 | 0 | 0 | 2 |  |  |  |  |  |  |  |  |  |  | 
2 | O=C(O)CCCSc1ccc2ccccc2c1 [4-(naphthalen-2-ylthio)butanoic acid, 4-(Naphthalen-2-ylthio)butanoic acid, reference compound] | − |  | 2 | 9 | 0 | 0 | 25 | no expansion | 33% |  |  |  |  |  |  |  |  | 
3 | O=C(O)CCCOc1ccccc1 [4-phenoxybutanoic acid, reference compound] | − |  | 0 | 0 | 0 | 0 | 36 |  | 13% |  |  |  |  |  |  |  |  | 
4 | O=C(O)CCCCc1ccccc1 [5-phenylpentanoic acid, reference compound] | − | no expansion | 0 | 0 | 0 | 0 | 36 |  |  |  |  |  |  |  |  |  |  | 
5 | Cn1cc(C(=O)Cc2ccccc2)cc1/C=C/C(=O)NO [APHA compound 8, reference compound] | − |  | 0 | 0 | 0 | 0 | 36 |  |  |  |  |  |  |  |  |  |  | 
6 | Nc1ccccc1NC(=O)c1ccc(CNC(=O)OCc2cccnc2)cc1 [MS-275, reference compound] | − |  | 0 | 0 | 0 | 0 | 36 |  |  | no effect |  |  |  |  |  |  |  | 
7 | O=C(CCCCCCC(=O)Nc1ccccc1)NO [SAHA, reference compound] | − |  | 0 | 0 | 0 | 0 | 36 |  |  | no effect |  |  |  |  |  |  |  | 
8 | O=C(CCCCCN1C(=O)c2cccc3cccc(c23)C1=O)NO [Scriptaid, reference compound] | +/− |  | 0 | 1 | 0 | 0 | 35 |  | 39% |  |  |  |  |  |  |  |  | 
9 | COC(=O)CCCSc1ccc(Cl)cc1 [UPHD-00021, methyl 4-[(4-chloro-phenyl)sulfanyl]butanoate] | + |  | 1 | 10 | 6 | 19 | 0 |  |  |  | +/− | 72% | 72% | 97% |  |  |  | 
10 | O=C(CCCSc1ccccc1)NO [UPHD-00023, N-hydroxy- 4(phenyl- sulfanyl)butanamide] | + |  | 0 | 3 | 20 | 13 | 0 |  |  |  | + | 92% | 92% | 100% | +/− | 0% | 6% | 1300 nM
11 | CCCOC(=O)CCCSc1ccccc1 [UPHD-00024, propyl 4-(phenylsulfanyl)butanoate] | + |  | 6 | 7 | 8 | 15 | 0 |  |  |  | + | 89% | 89% | 94% | +/− | 0% | 10% | 1270 nM
